PubChem BioAssay (NCI)
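Cells were grown in 96-well plates and exposed to each compound for 48 hours at five concentrations; endpoints were interpolated linearly between bracketing concentrations, or set to the highest concentration if not reached. The concentration for 50% growth inhibition is given as GI50. The concentration for full growth arrest is given as TGI.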

Legend:
Experiment in all cases: NCI anticancer screen, dose series, 48 h
786-0 renal = tested on: 786-0 renal
A498 renal = tested on: A498 renal
A549 NSCLC = tested on: A549 NSCLC
ACHN renal = tested on: ACHN renal
BT-549 breast = tested on: BT-549 breast
CAKI-1 renal = tested on: CAKI-1 renal
CCRF-CEM leukemia = tested on: CCRF-CEM leukemia
COLO 205 colon = tested on: COLO 205 colon
DU-145 prostate = tested on: DU-145 prostate
EKVX NSCLC = tested on: EKVX NSCLC
HCC-2998 colon = tested on: HCC-2998 colon
HCT-116 colon = tested on: HCT-116 colon
HCT-15 colon = tested on: HCT-15 colon
HOP-62 NSCLC = tested on: HOP-62 NSCLC
HS 578T breast = tested on: HS 578T breast
HT29 colon = tested on: HT29 colon
IGROV1 ovarian = tested on: IGROV1 ovarian
KM12 colon = tested on: KM12 colon
LOX IMVI melanoma = tested on: LOX IMVI melanoma
M14 melanoma = tested on: M14 melanoma
MALME-3M melanoma = tested on: MALME-3M melanoma
MCF7 breast = tested on: MCF7 breast
MDA-MB-231 breast = tested on: MDA-MB-231 breast
MDA-MB-435 = tested on: MDA-MB-435
MOLT-4 leukemia = tested on: MOLT-4 leukemia
NCI-H226 lung = tested on: NCI-H226 lung
NCI-H23 lung = tested on: NCI-H23 lung
NCI-H460 lung = tested on: NCI-H460 lung
NCI-H522 lung = tested on: NCI-H522 lung
NCI/ADR-RES ovarian = tested on: NCI/ADR-RES ovarian
OVCAR-3 ovarian = tested on: OVCAR-3 ovarian
OVCAR-4 ovarian = tested on: OVCAR-4 ovarian
OVCAR-5 ovarian = tested on: OVCAR-5 ovarian
OVCAR-8 ovarian = tested on: OVCAR-8 ovarian
PC-3 prostate = tested on: PC-3 prostate
RPMI-8226 leukemia = tested on: RPMI-8226 leukemia
RXF 393 renal = tested on: RXF 393 renal
SF-268 CNS = tested on: SF-268 CNS
SF-295 CNS = tested on: SF-295 CNS
SF-539 CNS = tested on: SF-539 CNS
SK-MEL-28 melanoma = tested on: SK-MEL-28 melanoma
SK-MEL-5 melanoma = tested on: SK-MEL-5 melanoma
SK-OV-3 ovarian = tested on: SK-OV-3 ovarian
SN12C renal = tested on: SN12C renal
SNB-19 CNS = tested on: SNB-19 CNS
SNB-75 CNS = tested on: SNB-75 CNS
SR leukemia = tested on: SR leukemia
SW-620 colon = tested on: SW-620 colon
T-47D breast = tested on: T-47D breast
TK-10 renal = tested on: TK-10 renal
U251 CNS = tested on: U251 CNS
UACC-257 melanoma = tested on: UACC-257 melanoma
UACC-62 melanoma = tested on: UACC-62 melanoma
UO-31 renal = tested on: UO-31 renal

Q: What does the source list for `N#Cc1c(N)nc(NCc2ccccc2)c(C#N)c1-c1ccc(Cl)cc1`?
A: GI50 (786-0 renal): 20 µM; TGI (786-0 renal): 38.6 µM; GI50 (A498 renal): 10.4 µM; TGI (A498 renal): 26.4 µM; GI50 (A549 NSCLC): 28.3 µM; TGI (A549 NSCLC): > 100 µM; GI50 (ACHN renal): 13.4 µM; TGI (ACHN renal): 32.8 µM; GI50 (BT-549 breast): 19.6 µM; TGI (BT-549 breast): 60.4 µM; GI50 (CAKI-1 renal): 20.1 µM; TGI (CAKI-1 renal): 46.7 µM; GI50 (CCRF-CEM leukemia): 28.2 µM; TGI (CCRF-CEM leukemia): > 100 µM; GI50 (COLO 205 colon): 46.9 µM; TGI (COLO 205 colon): > 100 µM; GI50 (DU-145 prostate): 17.7 µM; TGI (DU-145 prostate): 55.7 µM; GI50 (EKVX NSCLC): 27.3 µM; TGI (EKVX NSCLC): 79 µM; GI50 (HCC-2998 colon): 71.1 µM; TGI (HCC-2998 colon): > 100 µM; GI50 (HCT-116 colon): 15.8 µM; TGI (HCT-116 colon): 41.3 µM; GI50 (HCT-15 colon): 18.8 µM; TGI (HCT-15 colon): > 100 µM; GI50 (HOP-62 NSCLC): 16.1 µM; TGI (HOP-62 NSCLC): 31.2 µM; GI50 (HS 578T breast): 15.6 µM; TGI (HS 578T breast): 40.4 µM; GI50 (HT29 colon): 22.3 µM; TGI (HT29 colon): > 100 µM; GI50 (IGROV1 ovarian): 13.5 µM; TGI (IGROV1 ovarian): 32.4 µM; GI50 (KM12 colon): 25.2 µM; TGI (KM12 colon): > 100 µM; GI50 (LOX IMVI melanoma): 12.4 µM; TGI (LOX IMVI melanoma): 29.3 µM; GI50 (M14 melanoma): 20 µM; TGI (M14 melanoma): 99.7 µM; GI50 (MALME-3M melanoma): 14.4 µM; TGI (MALME-3M melanoma): 54.5 µM; GI50 (MCF7 breast): 13.8 µM; TGI (MCF7 breast): 83.1 µM; GI50 (MDA-MB-231 breast): 14.2 µM; TGI (MDA-MB-231 breast): 33.2 µM; GI50 (MDA-MB-435): 15.7 µM; TGI (MDA-MB-435): 43.6 µM; GI50 (MOLT-4 leukemia): 34.3 µM; TGI (MOLT-4 leukemia): > 100 µM; GI50 (NCI-H226 lung): 10.6 µM; TGI (NCI-H226 lung): 31.2 µM; GI50 (NCI-H23 lung): 22.8 µM; TGI (NCI-H23 lung): 80 µM; GI50 (NCI-H460 lung): 10.2 µM; TGI (NCI-H460 lung): 28.7 µM; GI50 (NCI-H522 lung): 20.9 µM; TGI (NCI-H522 lung): 57.5 µM; GI50 (NCI/ADR-RES ovarian): 19.8 µM; TGI (NCI/ADR-RES ovarian): 60 µM; GI50 (OVCAR-3 ovarian): 14.7 µM; TGI (OVCAR-3 ovarian): 37.1 µM; GI50 (OVCAR-4 ovarian): 9.57 µM; TGI (OVCAR-4 ovarian): > 100 µM; GI50 (OVCAR-5 ovarian): 24.2 µM; TGI (OVCAR-5 ovarian): 76.1 µM; GI50 (OVCAR-8 ovarian): 19 µM; TGI (OVCAR-8 ovarian): 57.2 µM; GI50 (PC-3 prostate): 17.9 µM; TGI (PC-3 prostate): 48.7 µM; GI50 (RPMI-8226 leukemia): 18.9 µM; TGI (RPMI-8226 leukemia): 97.1 µM; GI50 (RXF 393 renal): 26.5 µM; TGI (RXF 393 renal): 74.1 µM; GI50 (SF-268 CNS): 14.3 µM; TGI (SF-268 CNS): 35.6 µM; GI50 (SF-295 CNS): 14.2 µM; TGI (SF-295 CNS): 34.4 µM; GI50 (SF-539 CNS): 25.9 µM; TGI (SF-539 CNS): 68.1 µM; GI50 (SK-MEL-28 melanoma): 25.9 µM; TGI (SK-MEL-28 melanoma): > 100 µM; GI50 (SK-MEL-5 melanoma): 25.9 µM; TGI (SK-MEL-5 melanoma): > 100 µM; GI50 (SK-OV-3 ovarian): 33.2 µM; TGI (SK-OV-3 ovarian): > 100 µM; GI50 (SN12C renal): 16.1 µM; TGI (SN12C renal): 38.3 µM; GI50 (SNB-19 CNS): 31.6 µM; TGI (SNB-19 CNS): > 100 µM; GI50 (SNB-75 CNS): 22.1 µM; TGI (SNB-75 CNS): 72.3 µM; GI50 (SR leukemia): 13.3 µM; TGI (SR leukemia): 52.8 µM; GI50 (SW-620 colon): 16.2 µM; TGI (SW-620 colon): 96.9 µM; GI50 (T-47D breast): 27.3 µM; TGI (T-47D breast): > 100 µM; GI50 (TK-10 renal): 14.4 µM; TGI (TK-10 renal): 32.8 µM; GI50 (U251 CNS): 12.4 µM; TGI (U251 CNS): 26.9 µM; GI50 (UACC-257 melanoma): 67.9 µM; TGI (UACC-257 melanoma): > 100 µM; GI50 (UACC-62 melanoma): 14.7 µM; TGI (UACC-62 melanoma): 33.5 µM; GI50 (UO-31 renal): 31.9 µM; TGI (UO-31 renal): > 100 µM
